Reference: paper PMC11643690, “Chelating Properties of N6O-Donors Toward Cu(II) Ions: Speciation in Aqueous Environments and Catalytic Activity of the Dinuclear Complexes” (Molecules, 2024)
“Also recorded” adds a separate entry of the source.

Key:
[1] = UV–Vis titration of ligands with Cu(ClO4)2, binding constant by non-linear regression; conditions: difference of stability constants
Procedure: To determine the overall equilibrium constant β1,2 (Kbind), a solution of the ligand was titrated with aliquots of 0.2 equivalents of Cu(II). Monitoring the formation of the complex via UV–Vis spectroscopy, the absorbance around 260 nm, 300 nm, 450 nm, and 700 nm increased during the titration (Figure 3a) in all cases. The latter two bands are visible only at high concentrations (>0.1 mM). These changes are caused by the formation of the complex and the disappearance of the free ligand.
In Figure 3b, the linear increase in the absorbance change (ΔAbs) at 240 nm, upon an increase in Cu(II) amount, is evident, leading to a sharp plateau around 2 equivalents. […] The binding constants were determined by non-linear regression analysis of Equation (2), (2) ∆A/b=(K1∆A1Cu+ β1,2∆A2Cu^2)/1+K1Cu+ β1,2Cu^2 which traces the correlation “ΔAbs/b vs. Cu(II) concentration,” according to K. Connors. In this equation, ΔA is the differences in absorbance at a certain wavelength, b is the optical path (1 cm), K1 is the constant for the formation of the complex 1:1, and β1,2 is the global formation constant (Kbind) for the complex 1:2. ΔA1 and ΔA2 are the differences in absorbance due to the formation of the 1:1 complex and the 1:2 complex, respectively. […]
(§1) UV-vis spectra of ligands and complexes were recorded in a quartz cuvette, with 1 cm of optical path. […]

[2] = UV–Vis titration of HL-CH3 with Fe(ClO4)2, binding constant; conditions: Fe(II); 0.1 mM ligand, 5% v/v MeOH/BBS 50 mM, pH 7.4
Procedure: To evaluate the selectivity of these ligands towards copper, the same titrations were performed with different metal salts: Fe(ClO4)2, Mn(ClO4)2, and Zn(ClO4)2, monitoring the methyl-substituted ligand (Figures S39–S41). These metal ions were chosen because they are also divalent and common in biological matrixes.
For the determination of the binding constant between metals and ligands, a solution of the latter was titrated with 0.2 eq of metal for each addition. The titrating solutions were 10 mM and 100 μM for Cu(ClO4)2 versus 0.1 mM and 1 μM for the ligands in 5% v/v MeOH/BBS (50 mM, pH 7.4), respectively. […] The absorbance variation was monitored from 200 nm to 800 nm at 25 °C. […]
as §1
The titrating solutions were 10 mM and 100 μM for Cu(ClO4)2 versus 0.1 mM and 1 μM for the ligands in 5% v/v MeOH/BBS (50 mM, pH 7.4), respectively. […] The absorbance variation was monitored from 200 nm to 800 nm with a Varian Cary 50 instrument, thermostated at 25 °C.
The binding constants were then determined by nonlinear regression analysis of the plot “ΔAbs/b vs Cu(II) concentration” (Equation 7 ), according to K. Connors, The Measurement of Molecular Complex Stability, Madison, Wisconsin, Wiley, 1987[5]. […]
ΔA: absorbance at a certain wavelength. […]

Kbind [2]: 1.09 × 10^8 M^−2
log(Kbind) [2]: 8.03
Structure (SMILES): Cc1cc(CN(Cc2ccccn2)Cc2ccccn2)c(O)c(CN(Cc2ccccn2)Cc2ccccn2)c1 [HL-CH3, 2,6-bis[(bis(2-pyridylmethyl)amino)methyl]-4-methylphenol]
binding preference for copper ions over Mn2+, Fe2+, Zn2+ [1]: almost three orders of magnitude; also recorded: approximately three orders of magnitude higher
